Results as given in US20240342316A1, “A PHARMACEUTICAL COMPOSITION FOR IMAGING” (ASTELLAS PHARMA INC., priority 2021, published 2024).

Experiments:
[1] = NIR versus white light; cited from earlier work
[2] = Phase 1 single ascending IV bolus dose study: plasma and urine pharmacokinetics; conditions: for t1/2, apparent terminal plasma elimination half-life: healthy participants, n = 4, arithmetic mean
Description: The study (ClinicalTrials.gov Identifier: NCT03698305) was a randomized, double-blind, placebo-controlled, sequential ascending IV bolus dose group study conducted at a single center (Covance Clinical Research Unit, Inc.) in the United States.
The study population, 30 participants in all, was comprised of 5 cohorts consisting of 6 healthy volunteers (3 females and 3 males) per cohort. […] The study consisted of a screening period, an investigational period, and a follow-up period (FIG. 1). Following successful screening, participants were admitted to the clinic on study day −1.
After at least 5 of 6 patients in a cohort had completed the study procedure, a Dose-Escalation Committee reviewed all PK and safety data, and decided whether to proceed with dose escalation, stop dose escalation, repeat a dose level, or investigate a lower dose level intermediate between the current and prior doses.
Blood and urine samples were collected over a 24-hour period. Participants were discharged on day 2, returned to the clinic for a follow-up visit on day 7, and the study was completed with a follow-up phone call on day 14. To prevent accidental unblinding should the urine be discolored, catheter and tubing collection bags were covered, and participants were prevented from observing these or the collection vials when changed.
Urine interval sampling was between −1 hour and time of dosing, and between each subsequent consecutive urine sample collection time point.
The safety population comprised all participants who received a single dose of study drug. The PK population comprised safety population participants for which data were available for derivation of ≥1 PK parameter. Pharmacokinetic parameters were calculated by noncompartmental analysis using Phoenix WinNonlin version 8.1 and were summarized by treatment group.

| SMILES | NIRF ureter visualization in first-in-human study [1] | Mean terminal half-life, range across doses ([2]; 0.1 mg to 24 mg single IV bolus) [h] | t1/2, apparent terminal plasma elimination half-life ([2]; single IV bolus 0.1 mg) [h] | t1/2, apparent terminal plasma elimination half-life ([2]; single IV bolus 0.5 mg) [h] | t1/2, apparent terminal plasma elimination half-life ([2]; single IV bolus 2 mg) [h] | t1/2, apparent terminal plasma elimination half-life ([2]; single IV bolus 8 mg) [h] | t1/2, apparent terminal plasma elimination half-life ([2]; single IV bolus 24 mg) [h] |
| --- | --- | --- | --- | --- | --- | --- | --- |
| CN(C)c1ccc2nc3ccc(=[N+](C)C)cc-3sc2c1 [methylene blue] | did not provide sufficient optical properties to offer any visualization advantage with NIR over white light |  |  |  |  |  |  |
| COC1=C(/C=C/C2=[N+](CCC(=O)NCCCO[C@H]3[C@H]4O[C@H]5[C@H](O)[C@@H](O)[C@@H](O[C@H]6[C@H](O)[C@@H](O)[C@@H](O[C@H]7[C@H](O)[C@@H](O)[C@@H](O[C@H]8[C@H](O)[C@@H](O)[C@@H](O[C@H]9[C@H](O)[C@@H](O)[C@@H](O[C@H]%10[C@H](O)[C@@H](O)[C@@H](O[C@@H]([C@@H]3O)[C@@H](CO)O4)O[C@@H]%10CO)O[C@@H]9CO)O[C@@H]8CO)O[C@@H]7CO)O[C@@H]6CO)O[C@@H]5CO)c3ccc4ccccc4c3C2(C)C)CCC/C1=C\C=C1\N(CCC(=O)NCCCO[C@H]2[C@H]3O[C@H]4[C@H](O)[C@@H](O)[C@@H](O[C@H]5[C@H](O)[C@@H](O)[C@@H](O[C@H]6[C@H](O)[C@@H](O)[C@@H](O[C@H]7[C@H](O)[C@@H](O)[C@@H](O[C@H]8[C@H](O)[C@@H](O)[C@@H](O[C@H]9[C@H](O)[C@@H](O)[C@@H](O[C@@H]([C@@H]2O)[C@@H](CO)O3)O[C@@H]9CO)O[C@@H]8CO)O[C@@H]7CO)O[C@@H]6CO)O[C@@H]5CO)O[C@@H]4CO)c2ccc3ccccc3c2C1(C)C [Pudexacianinium] |  | 2.1 to 3.6 | 2.24 | 2.23 | 2.10 | 3.58 | 3.41 |
